Experimental data as given in patent US20240390338A1, “METHODS FOR TREATING NEUROGENERATIVE DISEASES” (PTC THERAPEUTICS, INC., priority 2021, published 2024).

Test system: MAPT 3R mRNA
Experiment: RT-qPCR Assay to Quantify MAPT 3R mRNA in Cells
Assay type: cell-based
Parameters: key to EC2X: An EC2X value ≥3000 nM is indicated by “inactive.”; An EC2X value between >1500 nM and ≤3000 nM is indicated by one star (*); An EC2X value between >1000 nM and ≤1500 nM is indicated by two stars (**); An EC2X value between >500 nM and ≤1000 nM is indicated by three stars (***); An EC2X value between >50 nM and ≤500 nM is indicated by four stars (****); An EC2X value ≤50 nM is indicated by five stars (*****)
Settings: cells incubated with compound 24 h; 7-point concentration curve; MAPT minigene 3R RT-qPCR with GAPDH assay; EC2X interpolated from dose response curve
Method: RT-qPCR Assay to Quantify MAPT 3R mRNA in Cells
Test compounds were serially diluted 3.16-fold in 100% DMSO to generate a 7-point concentration curve. Aliquots of 0.5 μL of diluted compounds were transferred to a 96-well flat bottom plate by a liquid handler. An aliquot of 0.5 μL DMSO was also transferred to separate wells and used as controls. Duplicate samples were set up for each compound concentration and for the DMSO control.
Cells were thawed and incubated in cell culture media (DMEM, 10% FBS, and 1% antibiotic cocktail) for 72 h. Cells were trypsinized, counted, and re-suspended to a concentration of 200,000 cells/mL in cell culture media. A 100 μL aliquot of the cell suspensions were plated at 20,000 cells per well in the compound containing 96 well microtiter plate and incubated for in a cell culture incubator (37° C., 5% CO2, 100% relative humidity).
After 24 h, media was aspirated from the cells and 20 μL of the RCL2 lysis buffer (10 mM Tris-HCL pH 7.4, 150 mM NaCl, 0.33% IGEPAL® CA-630) was added to each well and incubated at RT for 1 min. Chilled nuclease free water (140 μL per well) was added and the plates were immediately transferred on ice. After 1 min on ice, plates were frozen at −80° C. overnight.
Preparation of RT-qPCR Reaction Mixture:
An aliquot of 4 μL/well of the cell lysates was transferred using the liquid handler to the Armadillo 384-Well PCR plate containing 6 μL/well of the RT-qPCR reaction mixture that was prepared as detailed above. The plates were then sealed with MicroAmp™ Optical Adhesive Film followed by spinning down for 1 min and placed in the CFX384 thermocycler (BioRad).
The RT-qPCR was carried out at the following temperatures for the indicated time: • Step 1: 48° C. (30 min) • Step 2: 95° C. (10 min) • Step 3: 95° C. (15 sec) • Step 4: 60° C. (1 min); then, repeated Steps 3 and 4 for a total of 40 cycles.
The percent exon 4 skipping was calculated for each dose of compound treatment using Equations 1 and 2.
Data were fit to a dose response curve and the EC2X was interpolated using XLfit® statistical and curve fitting package.
An EC2X value between >1000 nM and ≤1500 nM is indicated by two stars (**). An EC2X value between >500 nM and ≤1000 nM is indicated by three stars (***). An EC2X value between >50 nM and ≤500 nM is indicated by four stars (****). An EC2X value ≤50 nM is indicated by five stars (*****).

SMILES	EC (2-fold increase) [µM]	EC2X
Cc1c(C[C@H](C)N)sc2c(NCc3ccco3)ccnc12 [Cpd 34, 2-[(2S)-2-aminopropyl]-N-[(furan-2-yl)methyl]-3-methylthieno[3,2-b]pyridin-7-amine]	0.05 to 0.5	
Cc1c(C[C@@H](N)C(=O)Nc2ccncc2)sc2c(NCc3ccco3)cc(Cl)nc12 [Cpd 140, 3-(5-chloro-7-{[(furan-2-yl)methyl]amino}-3-methylthieno[3,2-b]pyridin-2-yl)-N-pyridin-4-yl-D-alaninamide]	0.05 to 0.5	
N[C@@H](CO)Cc1sc2c(NCc3ccco3)cc(Cl)nc2c1Br [Cpd 41, (2R)-2-amino-3-(3-bromo-5-chloro-7-{[(furan-2-yl)methyl]amino}thieno[3,2-b]pyridin-2-yl)propan-1-ol]	0.5 to 1	
C#C[C@H](N)Cc1sc2c(NCc3ccco3)cc(Cl)nc2c1Cl [Cpd 166, 2-[(2R)-2-aminobut-3-yn-1-yl]-3,5-dichloro-N-[(furan-2-yl)methyl]thieno[3,2-b]pyridin-7-amine]	0.05 to 0.5	
C[C@H](N)C(F)(F)c1sc2c(NCc3cccs3)cc(Cl)nc2c1Cl [Cpd 132, 2-[(2S)-2-amino-1,1-difluoropropyl]-3,5-dichloro-N-[(thiophen-2-yl)methyl]thieno[3,2-b]pyridin-7-amine]	0.05 to 0.5	
N[C@@H](CO)Cc1cc2nc(Cl)cc(NCc3ccco3)c2s1 [Cpd 17, (2R)-2-amino-3-(5-chloro-7-{[(furan-2-yl)methyl]amino}thieno[3,2-b]pyridin-2-yl)propan-1-ol]	1 to 1.5	
Cc1c(C[C@H](C)N)sc2c(NCc3nccs3)cc(Cl)nc12 [Cpd 57, 2-[(2S)-2-aminopropyl]-5-chloro-3-methyl-N-[(1,3-thiazol-2-yl)methyl]thieno[3,2-b]pyridin-7-amine]	≤ 0.05	
CSC[C@H](N)Cc1sc2c(NCc3ccco3)cc(Cl)nc2c1C [Cpd 104, 2-[(2R)-2-amino-3-(methylsulfanyl)propyl]-5-chloro-N-[(furan-2-yl)methyl]-3-methylthieno[3,2-b]pyridin-7-amine]	≤ 0.05	
Cc1c(C[C@@H](N)CF)sc2c(NCc3cccs3)cc(Cl)nc12 [Cpd 91, 2-[(2R)-2-amino-3-fluoropropyl]-5-chloro-3-methyl-N-[(thiophen-2-yl)methyl]thieno[3,2-b]pyridin-7-amine]	≤ 0.05	
N[C@@H](CCF)Cc1sc2c(NCc3ccco3)cc(Cl)nc2c1Cl [Cpd 93, 2-[(2S)-2-amino-4-fluorobutyl]-3,5-dichloro-N-[(furan-2-yl)methyl]thieno[3,2-b]pyridin-7-amine]	0.05 to 0.5	
CC[C@H](N)Cc1sc2c(NCc3cccs3)cc(Cl)nc2c1Br [Cpd 73, 2-[(2S)-2-aminobutyl]-3-bromo-5-chloro-N-[(thiophen-2-yl)methyl]thieno[3,2-b]pyridin-7-amine]	≤ 0.05	
C[C@H](N)Cc1cc2nc(Cl)cc(NCc3ccco3)c2s1 [Cpd 16, 2-[(2S)-2-aminopropyl]-5-chloro-N-[(furan-2-yl)methyl]thieno[3,2-b]pyridin-7-amine]	0.05 to 0.5	
C#C[C@H](N)Cc1sc2c(NCc3ccco3)cc(Cl)nc2c1C [Cpd 123, 2-[(2R)-2-aminobut-3-yn-1-yl]-3-methyl-5-chloro-N-[(furan-2-yl)methyl]thieno[3,2-b]pyridin-7-amine]	≤ 0.05	
N[C@H](Cc1sc2c(NCc3ccco3)cc(Cl)nc2c1Cl)C(=O)Nc1ccccc1 [Cpd 122, 3-(3,5-dichloro-7-{[(furan-2-yl)methyl]amino}thieno[3,2-b]pyridin-2-yl)-N-phenyl-D-alaninamide]	0.05 to 0.5	
C[C@H](N)Cc1sc2c(NCc3ccco3)cc(Cl)nc2c1C#N [Cpd 109, 2-[(2S)-2-aminopropyl]-5-chloro-7-{[(furan-2-yl)methyl]amino}thieno[3,2-b]pyridine-3-carbonitrile]	≤ 0.05	
Cc1c([C@@H](C)[C@H](C)N)sc2c(NCc3ccco3)cc(Cl)nc12 [Cpd 151, 2-[(2S,3S)-3-aminobutan-2-yl]-5-chloro-N-[(furan-2-yl)methyl]-3-methylthieno[3,2-b]pyridin-7-amine]		inactive
Cc1c(C[C@H](C)N)sc2c(NCc3cccs3)cc(C#N)nc12 [Cpd 54, 2-[(2S)-2-aminopropyl]-3-methyl-7-{[(thiophen-2-yl)methyl]amino}thieno[3,2-b]pyridine-5-carbonitrile]	0.05 to 0.5	
Cc1c(C[C@@H](N)C(=O)O)sc2c(NCc3ccco3)cc(Cl)nc12 [Cpd 115, 3-(5-chloro-7-{[(furan-2-yl)methyl]amino}-3-methylthieno[3,2-b]pyridin-2-yl)-D-alanine]	≤ 0.05	
CSC[C@H](N)Cc1sc2c(NCc3ccco3)cc(Cl)nc2c1Br [Cpd 118, 2-[(2R)-2-amino-3-(methylsulfanyl)propyl]-3-bromo-5-chloro-N-[(furan-2-yl)methyl]thieno[3,2-b]pyridin-7-amine]	≤ 0.05	
Cc1c(C[C@H](C)N)sc2c(NCc3ccccc3F)cc(Cl)nc12 [Cpd 29, 2-[(2S)-2-aminopropyl]-5-chloro-N-[(2-fluorophenyl)methyl]-3-methylthieno[3,2-b]pyridin-7-amine]	≤ 0.05	
Cc1c(C[C@H](C)N)sc2c(NCc3ccco3)cc(Cl)nc12 [Cpd 18, 2-[(2S)-2-aminopropyl]-5-chloro-N-[(furan-2-yl)methyl]-3-methylthieno[3,2-b]pyridin-7-amine]	≤ 0.05	
C[C@H](N)Cc1sc2c(NCc3cccs3)cc(Cl)nc2c1Cl [Cpd 52, 2-[(2S)-2-aminopropyl]-3,5-dichloro-N-[(thiophen-2-yl)methyl]thieno[3,2-b]pyridin-7-amine]	≤ 0.05	
N[C@H](CF)Cc1sc2c(NCc3cccs3)cc(Cl)nc2c1Br [Cpd 63, 2-[(2S)-2-amino-3-fluoropropyl]-3-bromo-5-chloro-N-[(thiophen-2-yl)methyl]thieno[3,2-b]pyridin-7-amine]	1 to 1.5	
COC[C@H](N)Cc1sc2c(NCc3ccco3)cc(Cl)nc2c1Br [Cpd 44, 2-[(2R)-2-amino-3-methoxypropyl]-3-bromo-5-chloro-N-[(furan-2-yl)methyl]thieno[3,2-b]pyridin-7-amine]	≤ 0.05	
COC[C@H](N)Cc1sc2c(NCc3ccco3)cc(Cl)nc2c1C [Cpd 45, 2-[(2R)-2-amino-3-methoxypropyl]-5-chloro-N-[(furan-2-yl)methyl]-3-methylthieno[3,2-b]pyridin-7-amine]	≤ 0.05	
Cc1c(C[C@@H](N)CS(C)(=O)=O)sc2c(NCc3ccco3)cc(Cl)nc12 [Cpd 108, 2-[(2R)-2-amino-3-(methanesulfonyl)propyl]-5-chloro-N-[(furan-2-yl)methyl]-3-methylthieno[3,2-b]pyridin-7-amine]	0.05 to 0.5	
Cc1c(C[C@@H](N)CO)sc2c(NCc3ccco3)cc(Cl)nc12 [Cpd 58, (2R)-2-amino-3-(5-chloro-7-{[(furan-2-yl)methyl]amino}-3-methylthieno[3,2-b]pyridin-2-yl)propan-1-ol]	≤ 0.05	
